{"source": "patent US20240115547A1", "about": "“PSYCHOTROPIC AGENTS AND USES THEREOF” (LB PHARMACEUTICALS INC., priority 2021, published 2024)", "system": "Dopamine (e.g., D2/D3)", "assay": "Dopamine RO % by raclopride PET after LB-102, various dosage regimens (Example 3)", "assay_type": "in vivo, human", "conditions": "group mean", "data": [{"molecule": "CCN1CCCC1CNC(=O)c1cc(S(=O)(=O)CC)c(NC)cc1OC", "note": "(centres unmarked) [LB-102]", "values": [{"measurement": "Dopamine RO % (Caudate + Putamen)", "setting": "50 mg SS (once a day for 4 days), 8 h after Day 4 administration", "result": 72, "unit": "%"}, {"measurement": "Dopamine RO % (Caudate + Putamen)", "setting": "75 mg QD, 48 h after LB-102 administration", "result": 37, "unit": "%"}]}]}
